Experimental data taken from US8314082B2, “Stilbene derivatives for ADP-ribosyl cyclase inhibitors” (Industrial Cooperation Foundation Chonbuk National …, priority 2006, dated 2012).

How the values were obtained:
rat kidney ADPR-cyclase = test: ADPR-cyclase activity assay (cGDPR / e-ADPR fluorescence from NGD+ or e-NAD+); assay type: biochemical; conditions: various concentrations
Description: (§1) FIGS. 1A and 1B show the inhibition of rat kidney ADPR-cyclase that was incubated with […] NGD^+ or e-NAD^+ in the presence of various concentrations of 4,4′-dihydrioxyazobenzene (DHAB) at 37° C. for 10 min and effects of DHAB on human CD38, rat brain, heart, spleen, and kidney ADPR-cyclase. FIGS. 1A and 1B are referred to as FIG. 1 herein.
(§2) Specific ADPR-cyclase activity was determined by measuring cyclic GDP-ribose (cGDPR) or etheno-ADP-ribose (e-cADPR) fluorometrically using NGD^+ or e-NAD^+ as a substrate [Greaff et al., Biochem. J. (2002)361:379-84]. Samples were incubated in the presence of 200 mM NGD^+ or e-NAD^+ with and without an appropriate agent in an assay buffer (25 mM HEPES, pH 7.4, 100 mM NaCl, and 0.1% Triton X-100) in a […]. The reaction mixture was incubated at 37° C. for 10 min. The reaction was stopped by adding […] trichloroacetic acid (10%). […] Fluorescence of cGDPR or e-ADPR in the solution was determined at excitation/emission wavelengths of 297/410 nm (HITACHI F-2000 fluorescence spectrophotometer). cADPR-hydrolase activity was determined by incubating cADPR with ADPR-cyclase or CD38 at 37° C. for 20 min. Hydrolysis of cADPR was analyzed by high performance liquid chromatography as described (White et al., 2000). […]

human CD38 = molecular target: T1, human CD38 (Homo sapiens, UniProt P28907); test: ADPR-cyclase activity assay, CD38; assay type: biochemical; parameters: dose or concentration left out as unconfirmed
T1 sequence (P28907 1-300): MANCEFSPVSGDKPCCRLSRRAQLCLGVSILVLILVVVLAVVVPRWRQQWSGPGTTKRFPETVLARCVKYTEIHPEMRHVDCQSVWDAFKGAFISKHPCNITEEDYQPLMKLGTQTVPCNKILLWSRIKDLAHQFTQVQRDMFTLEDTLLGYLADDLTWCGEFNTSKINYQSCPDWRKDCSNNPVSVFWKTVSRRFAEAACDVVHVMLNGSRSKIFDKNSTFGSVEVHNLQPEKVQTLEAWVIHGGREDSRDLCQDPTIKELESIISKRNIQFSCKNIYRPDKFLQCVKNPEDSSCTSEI
Description: as §1
as §2, with “of 200 mM” left out

STZ diabetic mice = test: Diabetic nephropathy in STZ diabetes mouse model; assay type: in vivo; conditions: 45 μg/kg i.p. once a day for 6 weeks, mean SE, n = 6
Description: Male mice, weighing 20 25 g, were made diabetic by a single intravenous injection of STZ (65 mg/kg body weight) in 0.05 M citrate buffer (pH 4.8). At the same day, the control mice were injected with the citrate buffer. After 2 days, induction of diabetes was confirmed by tail blood glucose level measurement by using the LifeScan One Touch glucometer (Johnson & Johnson). The diabetic mice (>16 mM blood glucose) were randomly divided into two groups; 6 mice per group treated with vehicle (0.1% DMSO in saline, 100 μl) or DHAB (45 μg/kg body weight in 0.1% DMSO in saline, 100 μl) and resveratrol (45 μg/kg body weight in 0.1% DMSO in saline, 100 μl) administered by intraperitoneal injection once a day for 6 weeks. The control mice were 6 mice per group treated with the vehicle. On day 39, the mice were detained in individual metabolic cages for 24 h for urine collection. On day 42, the mice were anesthetized with diethyl ether, and blood samples were taken from the abdominal aorta. Bilateral kidneys were rapidly removed and weighed. Urine was gravimetrically collected, and urinary albumin concentrations were determined with an enzyme-linked immunosorbent assay using a murine microalbuminuria kit (Albuwell; Exocell, Philadelphia, Pa.). Urine and serum creatinine levels were measured using the QuantiChrom Creatinine Assay Kit (BioAssay Systems, Hayward, Calif.), following the manufacturer's protocol.

For `Oc1ccc(N=Nc2ccc(O)cc2)cc1` [4,4′-DHAB, 4,4′-Dihydroxyazobenzene], the “inhibition of generation of cGDPR and e-ADPR from NGD+ and e-NAD+” value (rat kidney ADPR-cyclase) was “concentration-dependent”, the “sensitivity of enzyme activity to compound” value (human CD38) was “insensitive” and the Urine output (STZ diabetic mice; 24 h metabolic cage) was 2.27 ± 1.80 mL/day. The “Body Weight” value (STZ diabetic mice) was 22.1 ± 0.58 g, the Food intake (STZ diabetic mice) was 2.27 ± 0.61 g and the Plasma glucose (STZ diabetic mice) was 342 ± 36.1 mg/dL. For the same compound, the “Urinary Albumin” value (STZ diabetic mice) was 4.01 ± 3.61 µg/day and the Water intake (STZ diabetic mice) was 2.00 ± 1.73 mL.
